Test results as given in paper PMC11719397, “Monophthalates of betulinic acid and related pentacyclic triterpenes inhibit efficiently the SOS-mediated nucleotide exchange and impact PI3K/AKT signaling in oncogenic K-RAS4B proteins” (RSC Advances, 2025).
Converted amounts (≈) assume the structure as drawn.

Assays:
K-RAS4B^wt = target: T1, K-RAS4B^wt (Homo sapiens, UniProt P01116); assay: NanoBRET target engagement assay, K-RAS4B^wt (displacement of BI2852 tracer from SI/SII site); assay type: cell-based; conditions: live cells; displacement of BI2852 from the K-Ras4B SI/II binding-site; read-out: K-RAS4B^wt NanoBRET TE KD
T1 construct: a fusion protein of LgBiT and full-length RAS; a fusion protein of SmBiT(q) and full-length RAS in cells; expressed in transfected cells; host or cells: HEK239T (so in the source)
T1 sequence (P01116 1-188 isoform P01116-2): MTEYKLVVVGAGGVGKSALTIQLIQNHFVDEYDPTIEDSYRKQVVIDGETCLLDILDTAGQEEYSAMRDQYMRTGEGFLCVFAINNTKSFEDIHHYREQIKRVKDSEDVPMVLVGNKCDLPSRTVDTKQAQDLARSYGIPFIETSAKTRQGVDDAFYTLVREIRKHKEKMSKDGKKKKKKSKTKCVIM
T1 sequence (P01116 1-188 isoform P01116-2): as above
Text: (§1) To obtain further information on the mode of action, selected GDP/GTP exchange inhibitors were studied in additional assays (Table 3). A target engagement assay, which is based on bioluminescence resonance energy transfer (BRET), was used to measure target engagement at protein complexes in live cells (Fig. 5a). The BRET effect results from an energy transfer between the target luciferase fusion protein and a cell-permeable fluorescent tracer in intact cells.
(§2) Fig. 5 Schematic illustrations of the RAS cellular target engagement and RAS:SOS protein–protein interaction assay. (a) NanoBRET target engagement (TE) assay: when the fusion proteins LgBiT-RAS and SmBiT(q)-RAS interact in live-cells, they form an active luciferase as a BRET donor. The BRET receptor is a fluorescent NanoBRET® tracer that binds specifically to K-RAS. K-RAS binders displace the tracer and reduce the BRET signal in a dose-dependent manner.
(§3) The NanoBRET® TE Intracellular RAS Assay uses NanoBiT® Technology, a structural complementation system comprised of a large luciferase subunit (LgBiT) and a small complementary peptide (SmBiT(q)). Specifically, a fusion protein of LgBiT and full-length RAS is co-expressed with a fusion protein of SmBiT(q) and full-length RAS in cells. When the RAS proteins interact and form multimers, the LgBiT and SmBiT(q) subunits come together to form an active luciferase enzyme that serves as the BRET donor. The energy acceptor is a cell-permeable fluorescent NanoBRET® tracer that binds specifically to RAS. […] After mixing the plate for 1 min and incubation at room temperature for 15 min 1 μL of NanoBRET TE RAS Tracer 01 (final concentration 1 μM) was added followed by another mixing step. After 2 h incubation (37 °C, 5% CO2) and 15 min at room temperature 5 μL of NanoBRET™ Nano-Glo® substrate was added followed by a mixing step.

K-RAS4B wild-type [1] = target: K-RAS4B wild-type (Homo sapiens, UniProt P01116); assay: Nucleotide exchange assay (SOS1-mediated GDP/GTP exchange, GDP-Glo), K-RAS4B wild-type; assay type: biochemical; conditions: K-RAS4B GDP/GTP exchange; eight data points, at least three determinations; (*) single determination
Chain of K-RAS4B wild-type (Homo sapiens, UniProt P01116) (P01116 1-188 isoform P01116-2): as above

K-RAS4B^G12D [2] = target: T2, K-RAS4B^G12D (Homo sapiens, UniProt P01116, G12D); assay: biochemical; conditions: for IC50: K-RAS4B GDP/GTP exchange, eight data points, at least three determinations
Target sequence in this assay (P01116 1-188 isoform P01116-2 G12D): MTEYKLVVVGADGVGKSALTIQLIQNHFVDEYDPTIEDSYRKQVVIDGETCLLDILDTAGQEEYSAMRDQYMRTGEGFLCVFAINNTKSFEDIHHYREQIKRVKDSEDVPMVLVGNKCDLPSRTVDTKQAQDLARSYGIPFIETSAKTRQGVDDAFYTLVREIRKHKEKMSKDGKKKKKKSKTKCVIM

K-RAS4B^G12D [3] = target: T2, K-RAS4B^G12D; assay: cell-based; design: a fusion protein of LgBiT and full-length RAS; a fusion protein of SmBiT(q) and full-length RAS in cells; expressed in transfected cells; host or cells: HEK239T (so in the source); conditions: live cells; displacement of BI2852 from the K-Ras4B SI/II binding-site; read-out: K-RAS4B^G12D NanoBRET TE KD
Text: as §1, §2, §3
Target sequence in this assay (P01116 1-188 isoform P01116-2 G12D): as above
Target sequence in this assay (P01116 1-188 isoform P01116-2 G12D): as above

[4] = target: (GTP)K-RAS4B^wt:SOS1 complex (Homo sapiens, UniProt P01116+Q07889); assay: HTRF K-RAS^wt:SOS protein-protein interaction assay
Chain of (GTP)K-RAS4B^wt:SOS1 complex (P01116 1-188 isoform P01116-2): as the sequence (P01116 1-188 isoform P01116-2) above
Chain of (GTP)K-RAS4B^wt:SOS1 complex (Q07889 564-1049 limits assumed): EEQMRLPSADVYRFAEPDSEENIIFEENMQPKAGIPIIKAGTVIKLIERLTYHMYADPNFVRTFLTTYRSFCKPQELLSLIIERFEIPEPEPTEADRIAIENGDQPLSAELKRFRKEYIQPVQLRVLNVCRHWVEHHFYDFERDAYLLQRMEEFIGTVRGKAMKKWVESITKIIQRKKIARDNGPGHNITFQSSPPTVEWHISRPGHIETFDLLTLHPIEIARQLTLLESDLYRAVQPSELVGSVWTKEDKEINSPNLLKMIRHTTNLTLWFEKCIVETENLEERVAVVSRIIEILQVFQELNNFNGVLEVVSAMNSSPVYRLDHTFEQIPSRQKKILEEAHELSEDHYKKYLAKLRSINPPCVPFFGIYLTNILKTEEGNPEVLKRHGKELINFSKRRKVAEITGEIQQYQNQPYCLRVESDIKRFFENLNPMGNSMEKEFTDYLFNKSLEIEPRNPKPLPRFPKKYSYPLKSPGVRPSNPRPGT
Protocol: The interaction of (GTP)K-RAS4B^wt and SOS was measured with a HTRF assay using an SOS-specific antibody labeled with terbium cryptate as HTRF (homogeneous time-resolved fluorescence) donor and a K-RAS4B^wt specific antibody labeled with an HTRF acceptor (XL665).[52]
To test the compounds effect on the interaction of K-RAS and SOS1 proteins a commercial assay from Revvity (product code 64[sequence]) was used. The K-RAS WT/SOS1 PPI assay includes tagged human recombinant partners (K-RAS WT and SOS1) and labelled anti-tag reagents for HTRF detection. Without an inhibitor, K-RAS WT loaded with GTP binds to SOS1, and the binding of each detection reagent to its tagged target generates an HTRF signal. In the presence of K-RAS WT/SOS1 inhibitors or GTP competitors, the HTRF signal decreases.
After an incubation step for 10 min at room temperature 3 μL Tag1-KRAS protein was added followed by 7.5 μL detection mix containing anti-Tag2 antibody labeled with Terbium cryptate and anti-Tag1 antibody labeled with XL665. […] IC50 values were determined from the sigmoidal dose response curves with the Scigilian Analyze software (Scigilian, Monteral, Canada).

[5] = test system: a series of cancer cell lines; design: method as in PMID 25909174; conditions: read-out: cytotoxic IC50 against a series of cancer cell lines; cited from earlier work
[6] = test system: AKT phosphorylation in SNU-1 cells (K-RAS4B^G12D); assay: HTRF AKT phosphorylation assay in SNU-1 cells; assay type: cell-based; conditions: Homo sapiens, SNU1, read-out: SNU-1 pAKT inhibition IC50
Protocol: (§4) For selected betulinic acid derivatives quantitative ERK and AKT phosphorylation was measured in SNU-1 (K-RAS4B^G12D) and A375 cells (K-RAS4B^wt) to determine whether pentacyclic triterpenes act via the RAS-RAF-MEK-ERK or the RAS-PI3K-PDK1-AKT downstream cascade (Table 2). The betulinic acid derivatives tested, had no activity on the ERK pathway, but inhibited AKT phosphorylation with micromolar IC50 values in agreement with literature reports.[50,51] […] No activity was detected in A375 cells carrying a BRAF but no K-RAS mutation.
(§5) SNU-1 cells harbouring the K-RASG12D mutation (primary carcinoma of the stomach), were grown in RPMI medium with 10% FBS (fetal bovine serum) and 1% L-Gln. Cells were plated in white small volume cell culture 384 well microplates (Greiner BioOne GmbH) at a density of 50.000 cells per well/6 μL in RPMI medium with 1% L-glut (serum-free medium). The plated cells were placed in a high humidity incubator (37 °C, 5% CO2 and 90% humidity) to avoid evaporation of the small amount of medium for 3 hours before the compounds were added. With the Echo520 liquid handler the cells were treated with a 3-fold 8-point serial dilution of the compounds, with a top final concentration of 330 μM and a final DMSO concentration of 1%. After compound transfer, cells were incubated for 1 hour in the high humidity incubator before the cells were treated with 3 μL of 9 nM EGF diluted in serum-free medium (final EGF concentration in the well 3 nM) for 15 minutes. The lysis buffer from the Phospho-ERK 1/2 (Thr202/Tyr204)- and the Total ERK1/2 LANCE Ultra TR-FRET Cellular Detection Kit (PerkinElmer Inc.) was prepared to a 4-fold concentration in water. Then 3 μL of the lysis buffer were added to each well and the plates were shaken at 300 rpm for 30 minutes at room temperature. During this incubation the antibody detection mix was prepared according to the manufacturer's protocol. In the final step 3 μL of antibody detection mix were added to each well. The plates were sealed with an aluminium sticky foil and incubated over night at room temperature for 20 hours. The detection was performed with the EnVision2104 Multilabel Reader.

[7] = test system: ERK phosphorylation in SNU-1 cells (K-RAS4B^G12D); assay: HTRF ERK phosphorylation assay in SNU-1 cells; assay type: cell-based; conditions: Homo sapiens, SNU1, read-out: SNU-1 pERK inhibition IC50
Protocol: as §4, §5

[8] = test system: ERK phosphorylation in A375 cells (K-RAS4B^wt); assay: HTRF ERK phosphorylation assay in A375 cells; assay type: cell-based; conditions: Homo sapiens, A-375; A375 cells (K-RAS4B^wt, BRAF mutation); two determinations; read-out: A375 pERK inhibition IC50
Protocol: as §4, §5

[9] = test system: AKT phosphorylation in A375 cells (K-RAS4B^wt); assay: HTRF AKT phosphorylation assay in A375 cells; assay type: cell-based; conditions: Homo sapiens, A-375; A375 cells (K-RAS4B^wt, BRAF mutation); two determinations; read-out: A375 pAKT inhibition IC50
Protocol: as §4, §5

K-RAS4B G12V = K-RAS4B G12V (Homo sapiens, UniProt P01116, G12V); assay: Nucleotide exchange assay (SOS1-mediated GDP/GTP exchange, GDP-Glo), K-RAS4B G12V; assay type: biochemical; conditions: eight data points, at least three determinations, (*) single determination
Chain of K-RAS4B G12V (P01116 1-188 isoform P01116-2 G12V): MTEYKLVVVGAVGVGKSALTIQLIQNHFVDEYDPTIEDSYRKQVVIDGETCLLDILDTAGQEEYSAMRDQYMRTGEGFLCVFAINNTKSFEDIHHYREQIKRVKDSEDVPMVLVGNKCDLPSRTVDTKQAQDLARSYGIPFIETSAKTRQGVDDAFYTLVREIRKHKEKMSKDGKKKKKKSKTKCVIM

K-RAS4B wild-type [10] = assay: Nucleotide exchange assay (SOS1-mediated GDP/GTP exchange, GDP-Glo), K-RAS4B wild-type; assay type: biochemical; conditions: GDP/GTP exchange IC50 of wild-type versus G12D/G12V mutants

Kd (K-RAS4B^wt) [µM] | Kd (K-RAS4B^G12D [3]) [µM] | Kd [4] [µM] | SMILES | solubility (Solubility) [µM] | IC50 (K-RAS4B wild-type [1]) [µM] | IC50 (K-RAS4B^G12D [2]) [µM] | IC50 [5] [µM] | IC50 [6] [µM] | IC50 [7] [µM] | IC50 [8] [µM] | IC50 [9] [µM] | IC50 (K-RAS4B G12V) [µM] | selectivity factor, mutant versus K-RAS4B^wt (K-RAS4B wild-type [10]) | inhibition of GDP/GTP exchange (in words) (K-RAS4B^G12D [2]; K-RAS4B form mostly not given, inactive = IC50 > 100 μM (Fig. 3 legend))
– | – | – | C=C(C)[C@@H]1CC[C@]2(C(=O)O)CC[C@]3(C)[C@H](CC[C@@H]4[C@@]5(C)CC[C@H](OC(=O)c6ccccc6C(=O)O)C(C)(C)[C@@H]5CC[C@]43C)[C@@H]12 [Compound 19] | 191 (≈ 116 µg/mL) | 15.3 ± 3.8 | 10.4 ± 4.7 | ≤ 10 | 19 | > 300 | > 1000 | > 1000 | 16.6 ± 5.2 | – | –
– | – | – | C=C(C)[C@@H]1CC[C@]2(C(=O)O)CC[C@]3(C)[C@H](CC[C@@H]4[C@@]5(C)CC[C@H](OC(=O)c6nccnc6C(=O)O)C(C)(C)[C@@H]5CC[C@]43C)[C@@H]12 [Compound 23] | 434 (≈ 263 µg/mL) | 23.3 ± 2.9 | 11.8 ± 1 | – | 61.7 | > 1000 | > 1000 | > 1000 | 9.61 ± 4.82 | – | –
– | – | – | C=C(C)[C@@H]1CC[C@]2(C(=O)O)CC[C@]3(C)[C@H](CC[C@@H]4[C@@]5(C)CC[C@H](OC(=O)c6c(F)ccc(F)c6C(=O)O)C(C)(C)[C@@H]5CC[C@]43C)[C@@H]12 [Compound 24] | 378 (≈ 242 µg/mL) | 15.7 ± 4.3 | 8.63 ± 3.72 | – | 13 | 134 | > 1000 | > 1000 | 15.4 ± 2.9 | – | –
– | – | – | C=C(C)[C@@H]1CC[C@]2(C(=O)O)CC[C@]3(C)[C@H](CC[C@@H]4[C@@]5(C)CC[C@H](OC(=O)c6cc(F)c(F)cc6C(=O)O)C(C)(C)[C@@H]5CC[C@]43C)[C@@H]12 [Compound 25] | 240 (≈ 154 µg/mL) | 39.1 ± 5.4 | 5 ± 0.91 | – | 18.1 | > 300 | > 1000 | > 1000 | 9.79 ± 3.41 | 4–6 | –
– | – | – | C=C(C)[C@@H]1CC[C@]2(C(=O)O)CC[C@]3(C)[C@H](CC[C@@H]4[C@@]5(C)CC[C@H](OC(=O)c6cc(OC)c(OC)cc6C(=O)O)C(C)(C)[C@@H]5CC[C@]43C)[C@@H]12 [Compound 26] | 158 (≈ 105 µg/mL) | > 100 | 36.1 ± 14.7 | – | 83.7 | > 300 | > 1000 | > 1000 | 26.4 ± 3.9 | – | only moderate activity
– | – | – | C=C(C)[C@@H]1CC[C@]2(COC(=O)/C=C\C(=O)O)CC[C@]3(C)[C@H](CC[C@@H]4[C@@]5(C)CC[C@H](O)C(C)(C)[C@@H]5CC[C@]43C)[C@@H]12 [Compound 30] | – | 69.2 ± 6.8 | 6.8 ± 2.32 | – | – | – | – | – | 3.19 ± 0.19 | 15–20 | –
40.8 | 29.1 | > 100 | C=C(C)[C@@H]1CC[C@]2(COC(=O)CCC(=O)O)CC[C@]3(C)[C@H](CC[C@@H]4[C@@]5(C)CC[C@H](OC(=O)CCC(=O)O)C(C)(C)[C@@H]5CC[C@]43C)[C@@H]12 [Compound 32] | – | 1.01 ± 0.31 | 0.71 ± 0.18 | – | – | – | – | – | 1.37 ± 0.28 | – | –
– | > 50 | > 50 | C[C@H]1[C@H](C)CC[C@]2(C(=O)O)CC[C@]3(C)C(=CC[C@@H]4[C@@]5(C)CC[C@H](OC(=O)c6c(F)ccc(F)c6C(=O)O)C(C)(C)[C@@H]5CC[C@]43C)[C@H]12 [Compound 36] | 424 (≈ 272 µg/mL) | 3.46 ± 1.94 | 2.64 ± 1.75 | – | – | – | – | – | 2.52 ± 0.99 | – | –
– | 16.6 | > 50 | C[C@H]1[C@H](C)CC[C@]2(C(=O)O)CC[C@]3(C)C(=CC[C@@H]4[C@@]5(C)CC[C@H](OC(=O)c6cc(F)c(F)cc6C(=O)O)C(C)(C)[C@@H]5CC[C@]43C)[C@H]12 [Compound 37] | 220 (≈ 141 µg/mL) | 3.94 ± 1.02 | 2.53 ± 0.63 | – | – | – | – | – | 2.15 ± 0.31 | – | –
39 | > 50 | > 50 | COc1cc(C(=O)O)c(C(=O)OC2CCC3(C)C(CCC4(C)C3CC=C3C5CC(C)(C)CCC5(C(=O)O)CCC34C)C2(C)C)cc1OC (stereo not drawn) [Compound 47] | 302 (≈ 201 µg/mL) | 2.71 ± 1.3 | 1.61 ± 0.85 | – | – | – | – | – | 2.9 ± 0.51 | – | –

SMILES | Kd (K-RAS4B^wt) [µM] | Kd (K-RAS4B^G12D [3]) [µM] | Kd [4] [µM] | solubility (Solubility) [µM] | IC50 (K-RAS4B wild-type [1]) [µM] | IC50 (K-RAS4B^G12D [2]) [µM] | IC50 [5] [µM] | IC50 [6] [µM] | IC50 [7] [µM] | IC50 [8] [µM] | IC50 [9] [µM] | IC50 (K-RAS4B G12V) [µM] | selectivity factor, mutant versus K-RAS4B^wt (K-RAS4B wild-type [10]) | inhibition of GDP/GTP exchange (in words) (K-RAS4B^G12D [2]; K-RAS4B form mostly not given, inactive = IC50 > 100 μM (Fig. 3 legend))
C=C(C)[C@@H]1CC[C@]2(C(=O)O)CC[C@]3(C)[C@H](CC[C@@H]4[C@@]5(C)CC[C@H](OC(=O)c6sccc6C(=O)O)C(C)(C)[C@@H]5CC[C@]43C)[C@@H]12 [Compound 18] | 21.8 | 20.1 | > 50 | 255 (≈ 156 µg/mL) | 1.27 ± 0.69 | 1.83 ± 1.45 | – | – | – | – | – | – | – | –
C=C(C)[C@@H]1CC[C@]2(COC(=O)CCC(=O)O)CC[C@]3(C)[C@H](CC[C@@H]4[C@@]5(C)CC[C@H](OC(=O)c6cc(F)c(F)cc6C(=O)O)C(C)(C)[C@@H]5CC[C@]43C)[C@@H]12 [Compound 34] | – | > 100 | > 100 | 410 (≈ 298 µg/mL) | 1.18 ± 0.02 | 0.66 ± 0.13 | – | – | – | – | – | 2.85 ± 0.14 | – | –
